A short description of assay [1]: Isothermal titration calorimetry, single injection, XCage^8+. The format is binding. The following applies: toward Porp-2H and Porp-Zn. As for the experimental part: Since the high binding affinity and aggregation of the two porphyrins prevent the accurate measurement of binding constants by isothermal titration calorimetry (ITC), a single injection experiment was performed in order to determine the binding enthalpy. The Gibbs free energy of the receptor-substrate complexation was estimated directedly from the corresponding fluorescent titrations, providing a value for TAS. Compared with ExBox^4+, the binding enthalpies of XCage^8+ are in the range of 7-8 kcal mol^−1 larger, a major contributing factor to the enhanced affinity.
Isothermal titration calorimetry: Isothermal titration was performed by TA Nano Isothermal Titration Calorimeter at 25° C. A Hastelloy cell was used with an active cell volume 190 μL. The stirring speed was set at 150 rpm. The solutions of receptors and substrates were prepared in Milli-Q water and allowed to equilibrate overnight if necessary. The aggregation of porphyrins and their high affinity binding prevented the accurate determination of binding constants, we thus only evaluated the binding enthalpy by single injection method.^S17

Assay [2] in a line: Displacement (competitive) fluorescence titration, XCage^8+ displacing ExBox^4+. The format is binding. Particulars: toward Porp-2H and Porp-Zn; water. On the procedure: The changes in optical properties upon porphyrin encapsulation enable a facile study of the binding events. Fluorescence titrations of Porp-2H and Porp-Zn with ExBox^4+ yielded directly their binding constants in water. Since the binding affinities for XCage^8+ with Porp-2H and Porp-Zn are too high to be determined directly, competitive titrations were performed by displacing ExBox^4+ with XCage^8+ from the complex Porp-2H(Zn)⊂ExBox^4+. The binding affinities (Table 1) between ExBox^4+ and the two porphyrins are in the order of 10^7 M^−1. […] The samples were equilibrated for 6 h prior to the fluorescence titration studies. […]
Displacement fluorescence titration experiments: The displacement of porphyrins from Porp-2H⊂ExBox^4+ or Porp-Zn⊂ExBox^4+ by XCage^8+ to form Porp-2H⊂XCage^8+ or Porp-Zn⊂XCage^8+ regenerates the fluorescence emission of porphyrin, and the turn-on fluorescence was monitored as the signals to track the formation of the porphyrin inclusion complexes with XCage^8+. […] The samples were equilibrated at room temperature for 6 h, and the fluorescence intensity of each sample was recorded. The average fluorescence intensity of the three sets samples was plotted against the concentration of XCage^8+ to generate the binding isotherm, which was fitted by a displacement binding model^S15 to calculate the binding constant Ka using Origin Lab 8.6 software^S16.

The values below come from patent publication US12084579B2, “Cyclophane-sustained high performance porphyrins” (Northwestern University, priority 2020, dated 2024).

In the case of `c1cc2ccc1C[n+]1ccc(cc1)-c1cc3cc(c1)-c1cc4cc(c1)-c1cc[n+](cc1)Cc1ccc(cc1)C[n+]1ccc(cc1)-c1cc(cc(c1)-c1cc(cc(c1)-c1cc[n+](cc1)Cc1ccc(cc1)C[n+]1ccc-3cc1)-c1cc[n+](cc1)C2)-c1cc[n+](cc1)Cc1ccc(cc1)C[n+]1ccc-4cc1` [XCage^8+], in assay [1], the “binding enthalpies larger compared with ExBox^4+” value is 7 to 8 kcal/mol. Further, the “enhancement in the binding affinities compared with ExBox^4+” value in assay [2] is listed as roughly 1000 fold.
